Data: the NIST ThermoML archive (doi:10.1021/acs.jced.5b00367)

Assay: wn = mass fraction of the nth substance listed
Details: 101 kPa, Liquid, Alternating current cell with electrodes, w1 = 0.01

CCCCCCCCCCCCCCCC[N+](CC)(CC)CCCCCCCCCCCCCCCC.[Br-] [diethyldihexadecylammonium bromide] + O
Details | electrical conductivity [S/m]
279.15 K | 0.0018
279.25 K | 0.00186
279.45 K | 0.00186
279.55 K | 0.00187
279.65 K | 0.00187
279.85 K | 0.00188
280.15 K | 0.00189
280.35 K | 0.00189
280.55 K | 0.0019
280.65 K | 0.0019
281.05 K | 0.0019
281.15 K | 0.00191
281.55 K | 0.00191
281.85 K | 0.00192
282.05 K | 0.00192
282.25 K | 0.00193
282.75 K | 0.00194
283.05 K | 0.00195
283.15 K | 0.00195
283.45 K | 0.00195
283.65 K | 0.00195
283.85 K | 0.00195
283.95 K | 0.00195
284.15 K | 0.00195
284.55 K | 0.00197
284.75 K | 0.00197
285.25 K | 0.00197
285.45 K | 0.00198
285.55 K | 0.00198
285.75 K | 0.00198
285.85 K | 0.00198
286.15 K | 0.00198
286.25 K | 0.00198
286.55 K | 0.00198
286.65 K | 0.00198
289.15 K | 0.002
290.15 K | 0.00201
290.85 K | 0.00202
291.45 K | 0.00204
291.75 K | 0.00205
292.05 K | 0.00206
292.95 K | 0.00207
295.55 K | 0.00209
296.65 K | 0.0021
297.65 K | 0.00211
298.65 K | 0.00212
299.45 K | 0.00213
300.75 K | 0.00214
301.25 K | 0.00215
302.35 K | 0.00216
303.05 K | 0.00217
303.65 K | 0.00219
304.05 K | 0.0022
305.25 K | 0.00226
305.55 K | 0.00229
305.95 K | 0.00235
306.45 K | 0.00239
306.95 K | 0.00247
307.35 K | 0.00254
307.65 K | 0.00264
307.95 K | 0.0027
308.15 K | 0.00278
308.45 K | 0.00294
308.75 K | 0.00294
308.95 K | 0.00295
309.55 K | 0.00296
310.25 K | 0.00297
311.35 K | 0.00299
312.45 K | 0.00304
312.65 K | 0.00305
313.55 K | 0.00305
313.95 K | 0.00308
314.15 K | 0.00314
316.55 K | 0.00319
317.25 K | 0.00323
318.65 K | 0.00322
318.75 K | 0.00325
319.15 K | 0.00326
320.75 K | 0.00328
320.95 K | 0.00331
321.05 K | 0.00333
322.05 K | 0.0034
322.15 K | 0.0034
323.15 K | 0.00347
